Reference: patent publication US10954269B2, “Anti-inflammatory tripeptides” (Dr. August Wolff Gmbh & Co. KG Arzneimittel, priority 2013, dated 2021)

Tests used:
primary human T-cells = test: Cytokine secretion on protein level in activated primary human T-cells (13-plex FACS / Luminex, supernatant); assay type: cell-based; details: for IL-1 cytokine concentration / IL-2 cytokine concentration / IL-4 cytokine concentration / IL-5 cytokine concentration / IL-6 cytokine concentration / IL-9 cytokine concentration / IL-10 cytokine concentration / IL-12p70 cytokine concentration / IL-13 cytokine concentration / IL-17 cytokine concentration / IL-22 cytokine concentration / TNF-α cytokine concentration / INF-α cytokine concentration: substance 10^−9M
Procedure, shortened: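 PMA/Ionomycin- or IFN-γ-activated cells (48 h) treated with tripeptides; supernatant 13-plex FACS at 48 h and 72 h post-stimulation. Luminex run: PMA/Ionomycin plus compound at 10^−7, 10^−9, 10^−11 M; IFN-γ, IL-17, IL-10 for T cells, IFN-γ for HaCaT.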

[1] = test system: human keratinocyte cell line (HaCaT); test: Cytokine secretion on protein level in activated human keratinocyte cell line HaCaT (13-plex FACS / Luminex, supernatant); assay type: cell-based; details: substance 10^−9M
Procedure, shortened: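 Cytokine protein in supernatant is read by multiplex FACS or Luminex. Tripeptide-treated HaCaT cells or blood-derived human T-cells are stimulated beforehand with PMA/Ionomycin or IFN-γ. The most relevant analytes are IL-1, IL-2, IL-6, IL-12p70, IL-17, IFN-γ and TNF-α, sampled 48 h and 72 h after stimulation.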

primary murine T-cells = test: Cytokine secretion on protein level in activated primary murine T-cells (13-plex FACS / Luminex, supernatant); assay type: cell-based, C57BL/6 mice; details: for IL-1 cytokine concentration / IL-2 cytokine concentration / IL-4 cytokine concentration / IL-5 cytokine concentration / IL-6 cytokine concentration / IL-10 cytokine concentration / IL-13 cytokine concentration / IL-17 cytokine concentration / IL-21 cytokine concentration / IL-22 cytokine concentration / IL-27 cytokine concentration / TNF-α cytokine concentration / IFN-γ cytokine concentration: substance 10^−9M
Procedure, shortened: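 T-cells from secondary lymphatic organs of naïve C57BL/6 mice, stimulated with PMA/Ionomycin or IFN-γ; supernatant cytokines measured by 13-plex FACS 48 h and 72 h after stimulation. In another run, PMA/Ionomycin-stimulated cells received compounds at 10^−7, 10^−9 and 10^−11 M, with IFN-γ, IL-17 and IL-10 measured by Luminex.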

[2] = primary human T-cells stimulated with IFN-γ
[3] = primary human T-cells stimulated with PBS
[4] = primary human T-cells stimulated with PMA/Ionomycin
[5] = HaCaT stimulated with PMA/Ionomycin
[6] = primary murine T-cells stimulated with IFN-γ
[7] = primary murine T-cells stimulated with PBS
[8] = primary murine T-cells stimulated with PMA/Ionomycin

Substance: N^α,N^α-dimethyl-(L)-Phe-(D)-Pro-N^α-methyl-(L)-Thr-OH [Example 7]
- secretion / expression of pro-inflammatory cytokines (supernatant) (primary human T-cells; activated primary human T-cells): immunomodulatory effects were seen
- IL-1 cytokine concentration (primary human T-cells; [2]): 0 pg/mL
- IL-2 cytokine concentration (primary human T-cells; [2]): 0 pg/mL
- IL-4 cytokine concentration (primary human T-cells; [2]): 83.34 pg/mL
- IL-5 cytokine concentration (primary human T-cells; [2]): 0 pg/mL
- IL-6 cytokine concentration (primary human T-cells; [2]): 56.38 pg/mL
- IL-9 cytokine concentration (primary human T-cells; [2]): 0 pg/mL
- IL-10 cytokine concentration (primary human T-cells; [2]): 69.21 pg/mL
- IL-12p70 cytokine concentration (primary human T-cells; [2]): 0 pg/mL
- IL-13 cytokine concentration (primary human T-cells; [2]): 59.7 pg/mL
- IL-17 cytokine concentration (primary human T-cells; [2]): 0 pg/mL
- IL-22 cytokine concentration (primary human T-cells; [2]): 0 pg/mL
- TNF-α cytokine concentration (primary human T-cells; [2]): 0 pg/mL
- IL-1 cytokine concentration (primary human T-cells; [3]): 154.31 pg/mL
- IL-2 cytokine concentration (primary human T-cells; [3]): 126.59 pg/mL
- IL-4 cytokine concentration (primary human T-cells; [3]): 0 pg/mL
- IL-5 cytokine concentration (primary human T-cells; [3]): 8.58 pg/mL
- IL-6 cytokine concentration (primary human T-cells; [3]): 122.64 pg/mL
- IL-9 cytokine concentration (primary human T-cells; [3]): 13.42 pg/mL
- IL-10 cytokine concentration (primary human T-cells; [3]): 121.25 pg/mL
- IL-12p70 cytokine concentration (primary human T-cells; [3]): 0 pg/mL
- IL-13 cytokine concentration (primary human T-cells; [3]): 0 pg/mL
- IL-17 cytokine concentration (primary human T-cells; [3]): 95.69 pg/mL
- IL-22 cytokine concentration (primary human T-cells; [3]): 0 pg/mL
- INF-α cytokine concentration (primary human T-cells; [3]): 69.17 pg/mL
- TNF-α cytokine concentration (primary human T-cells; [3]): 51.46 pg/mL
- IL-1 cytokine concentration (primary human T-cells; [4]): 508.96 pg/mL
- IL-2 cytokine concentration (primary human T-cells; [4]): 1650.58 pg/mL
- IL-4 cytokine concentration (primary human T-cells; [4]): 72.07 pg/mL
- IL-5 cytokine concentration (primary human T-cells; [4]): 357.88 pg/mL
- IL-6 cytokine concentration (primary human T-cells; [4]): 1100.07 pg/mL
- IL-9 cytokine concentration (primary human T-cells; [4]): 263.36 pg/mL
- IL-10 cytokine concentration (primary human T-cells; [4]): 842.93 pg/mL
- IL-12p70 cytokine concentration (primary human T-cells; [4]): 0 pg/mL
- IL-13 cytokine concentration (primary human T-cells; [4]): 991.61 pg/mL
- IL-17 cytokine concentration (primary human T-cells; [4]): 2611.96 pg/mL
- IL-22 cytokine concentration (primary human T-cells; [4]): 0 pg/mL
- INF-α cytokine concentration (primary human T-cells; [4]): 6989.26 pg/mL
- TNF-α cytokine concentration (primary human T-cells; [4]): 2062.57 pg/mL
- IL-1 cytokine concentration ([1]; HaCaT stimulated with IFN-γ): 109.65 pg/mL
- IL-2 cytokine concentration ([1]; HaCaT stimulated with IFN-γ): 267.78 pg/mL
- IL-4 cytokine concentration ([1]; HaCaT stimulated with IFN-γ): 0 pg/mL
- IL-5 cytokine concentration ([1]; HaCaT stimulated with IFN-γ): 0 pg/mL
- IL-6 cytokine concentration ([1]; HaCaT stimulated with IFN-γ): 470.44 pg/mL
- IL-9 cytokine concentration ([1]; HaCaT stimulated with IFN-γ): 14.88 pg/mL
- IL-10 cytokine concentration ([1]; HaCaT stimulated with IFN-γ): 0 pg/mL
- IL-12p70 cytokine concentration ([1]; HaCaT stimulated with IFN-γ): 0 pg/mL
- IL-13 cytokine concentration ([1]; HaCaT stimulated with IFN-γ): 1843.69 pg/mL
- IL-17 cytokine concentration ([1]; HaCaT stimulated with IFN-γ): 202.45 pg/mL
- IL-22 cytokine concentration ([1]; HaCaT stimulated with IFN-γ): 0 pg/mL
- TNF-α cytokine concentration ([1]; HaCaT stimulated with IFN-γ): 0 pg/mL
- IFN-γ cytokine concentration ([1]; HaCaT stimulated with PBS): 0 pg/mL
- IL-1 cytokine concentration ([1]; HaCaT stimulated with PBS): 181.03 pg/mL
- IL-2 cytokine concentration ([1]; HaCaT stimulated with PBS): 180.91 pg/mL
- IL-4 cytokine concentration ([1]; HaCaT stimulated with PBS): 0 pg/mL
- IL-5 cytokine concentration ([1]; HaCaT stimulated with PBS): 113.28 pg/mL
- IL-6 cytokine concentration ([1]; HaCaT stimulated with PBS): 119.59 pg/mL
- IL-9 cytokine concentration ([1]; HaCaT stimulated with PBS): 0 pg/mL
- IL-10 cytokine concentration ([1]; HaCaT stimulated with PBS): 0 pg/mL
- IL-12p70 cytokine concentration ([1]; HaCaT stimulated with PBS): 0 pg/mL
- IL-13 cytokine concentration ([1]; HaCaT stimulated with PBS): 1910.22 pg/mL
- IL-17 cytokine concentration ([1]; HaCaT stimulated with PBS): 0 pg/mL
- IL-22 cytokine concentration ([1]; HaCaT stimulated with PBS): 0 pg/mL
- TNF-α cytokine concentration ([1]; HaCaT stimulated with PBS): 21.66 pg/mL
- IFN-γ cytokine concentration [1, 5]: 450.42 pg/mL
- IL-1 cytokine concentration [1, 5]: 0 pg/mL
- IL-2 cytokine concentration [1, 5]: 218.82 pg/mL
- IL-4 cytokine concentration [1, 5]: 112.94 pg/mL
- IL-5 cytokine concentration [1, 5]: 88.67 pg/mL
- IL-6 cytokine concentration [1, 5]: 359.17 pg/mL
- IL-9 cytokine concentration [1, 5]: 14.57 pg/mL
- IL-10 cytokine concentration [1, 5]: 64.01 pg/mL
- IL-12p70 cytokine concentration [1, 5]: 0 pg/mL
- IL-13 cytokine concentration [1, 5]: 1877.03 pg/mL
- IL-17 cytokine concentration [1, 5]: 209.12 pg/mL
- IL-22 cytokine concentration [1, 5]: 0 pg/mL
- TNF-α cytokine concentration [1, 5]: 0 pg/mL
- secretion / expression of pro-inflammatory cytokines (supernatant) (primary murine T-cells; activated primary murine T-cells): immunomodulatory effects were seen
- IL-1 cytokine concentration (primary murine T-cells; [6]): 88.23 pg/mL
- IL-2 cytokine concentration (primary murine T-cells; [6]): 98.22 pg/mL
- IL-4 cytokine concentration (primary murine T-cells; [6]): 40.87 pg/mL
- IL-5 cytokine concentration (primary murine T-cells; [6]): 265.4 pg/mL
- IL-6 cytokine concentration (primary murine T-cells; [6]): 123.98 pg/mL
- IL-10 cytokine concentration (primary murine T-cells; [6]): 1199.53 pg/mL
- IL-13 cytokine concentration (primary murine T-cells; [6]): 0 pg/mL
- IL-17 cytokine concentration (primary murine T-cells; [6]): 84.26 pg/mL
- IL-21 cytokine concentration (primary murine T-cells; [6]): 0 pg/mL
- IL-22 cytokine concentration (primary murine T-cells; [6]): 50.37 pg/mL
- IL-27 cytokine concentration (primary murine T-cells; [6]): 0 pg/mL
- TNF-α cytokine concentration (primary murine T-cells; [6]): 25.58 pg/mL
- IFN-γ cytokine concentration (primary murine T-cells; [7]): 0 pg/mL
- IL-1 cytokine concentration (primary murine T-cells; [7]): 62.38 pg/mL
- IL-2 cytokine concentration (primary murine T-cells; [7]): 137.05 pg/mL
- IL-4 cytokine concentration (primary murine T-cells; [7]): 60.56 pg/mL
- IL-5 cytokine concentration (primary murine T-cells; [7]): 317.47 pg/mL
- IL-6 cytokine concentration (primary murine T-cells; [7]): 129.26 pg/mL
- IL-10 cytokine concentration (primary murine T-cells; [7]): 1283.71 pg/mL
- IL-13 cytokine concentration (primary murine T-cells; [7]): 0 pg/mL
- IL-17 cytokine concentration (primary murine T-cells; [7]): 0 pg/mL
- IL-21 cytokine concentration (primary murine T-cells; [7]): 0 pg/mL
- IL-22 cytokine concentration (primary murine T-cells; [7]): 15.86 pg/mL
- IL-27 cytokine concentration (primary murine T-cells; [7]): 61.43 pg/mL
- TNF-α cytokine concentration (primary murine T-cells; [7]): 53.67 pg/mL
- IFN-γ cytokine concentration (primary murine T-cells; [8]): 1916.21 pg/mL
- IL-1 cytokine concentration (primary murine T-cells; [8]): 154.26 pg/mL
- IL-2 cytokine concentration (primary murine T-cells; [8]): 99.71 pg/mL
- IL-4 cytokine concentration (primary murine T-cells; [8]): 99.12 pg/mL
- IL-5 cytokine concentration (primary murine T-cells; [8]): 246.42 pg/mL
- IL-6 cytokine concentration (primary murine T-cells; [8]): 184.98 pg/mL
- IL-10 cytokine concentration (primary murine T-cells; [8]): 1233.22 pg/mL
- IL-13 cytokine concentration (primary murine T-cells; [8]): 0 pg/mL
- IL-17 cytokine concentration (primary murine T-cells; [8]): 67.92 pg/mL
- IL-21 cytokine concentration (primary murine T-cells; [8]): 0 pg/mL
- IL-22 cytokine concentration (primary murine T-cells; [8]): 71.09 pg/mL
- IL-27 cytokine concentration (primary murine T-cells; [8]): 90.15 pg/mL
- TNF-α cytokine concentration (primary murine T-cells; [8]): 40.87 pg/mL
